Assay results: ChEMBL document CHEMBL1140567, “2-Aryl benzimidazoles featuring alkyl-linked pendant alcohols and amines as inhibitors of checkpoint kinase Chk2” (Bioorg Med Chem Lett, 2007)
≈ marks a conversion by molar mass, not a printed value.

Tests used:
[1] = Solubility in stimulated intestinal fluid at pH 7 after 3 days; type: physicochemical; conditions: simulated intestinal fluid
[2] = Solubility in stimulated gastric fluid at pH 2 umol after 3 days; type: physicochemical; conditions: simulated gastric fluid

Q: Which results are given for `NC(=O)c1ccc2[nH]c(-c3ccc(OCC4CCCN(Cc5ccccc5)C4)cc3)nc2c1` (stereo not given)?
A: solubility at 72 h [1]: 267 µM (≈ 118 µg/mL); solubility at 72 h [2]: > 400 µM

Q: Which solubility at 72 h [1] does the source give for `Cc1ccc(CN2CCCCC2CCOc2ccc(-c3nc4cc(C(N)=O)ccc4[nH]3)cc2)cc1` (stereo not given) here?
A: 97 µM (≈ 45.5 µg/mL)

Q: What about the solubility at 72 h [2] of the same compound?
A: > 400 µM

Q: Which results are given for `NC(=O)c1ccc2[nH]c(-c3ccc(OCCC4CCN(Cc5ccc(Cl)c(Cl)c5)CC4)cc3)nc2c1`?
A: solubility at 72 h [1]: 15 µM (≈ 7.85 µg/mL); solubility at 72 h [2]: 13 µM (≈ 6.81 µg/mL)

Q: For `Cc1ccc(CN2CCC(CCOc3ccc(-c4nc5cc(C(N)=O)ccc5[nH]4)cc3)CC2)cc1`, which solubility at 72 h [1] is on record?
A: 3 µM (≈ 1.41 µg/mL)

Q: What about the solubility at 72 h [2] of the same compound?
A: 84 µM (≈ 39.4 µg/mL)

Q: Which results are given for `NC(=O)c1ccc2[nH]c(-c3ccc(OCCO)cc3)nc2c1`?
A: solubility at 72 h [1]: > 400 µM; solubility at 72 h [2]: > 400 µM

Q: With `NC(=O)c1ccc2[nH]c(-c3ccc(OCC4CCN(Cc5ccccc5)CC4)cc3)nc2c1` as the compound, how does the solubility at 72 h [1] read?
A: > 400 µM

Q: What about the solubility at 72 h [2] of the same compound?
A: > 400 µM

Q: With `NC(=O)c1ccc2[nH]c(-c3ccc(OCCN4CCCCC4)cc3)nc2c1` as the compound, how does the solubility at 72 h [1] read?
A: > 400 µM

Q: And the solubility at 72 h [2]?
A: > 400 µM

Q: With `NC(=O)c1ccc2[nH]c(-c3ccc(OCCC4CCCCN4C(=O)c4ccccc4)cc3)nc2c1` (stereo not given) as the compound, how does the solubility at 72 h [1] read?
A: 18 µM (≈ 8.43 µg/mL)

Q: What about the solubility at 72 h [2] of the same compound?
A: 28 µM (≈ 13.1 µg/mL)

Q: Which solubility at 72 h [1] does the source give for `CN1CCC(Oc2ccc(-c3nc4cc(C(N)=O)ccc4[nH]3)cc2)CC1` here?
A: > 400 µM

Q: What about the solubility at 72 h [2] of the same compound?
A: > 400 µM

Q: Which solubility at 72 h [1] does the source give for `CC(=O)N1CCCCC1CCOc1ccc(-c2nc3cc(C(N)=O)ccc3[nH]2)cc1` (stereo not given) here?
A: 193 µM (≈ 78.5 µg/mL)

Q: What about the solubility at 72 h [2] of the same compound?
A: > 400 µM

Q: Which solubility at 72 h [1] does the source give for `CN(C)CCCOc1ccc(-c2nc3cc(C(N)=O)ccc3[nH]2)cc1` here?
A: > 400 µM

Q: What about the solubility at 72 h [2] of the same compound?
A: > 400 µM

Q: For `NC(=O)c1ccc2[nH]c(-c3ccc(OCCC4CCCCN4Cc4ccc(Cl)cc4)cc3)nc2c1` (stereo not given), which solubility at 72 h [1] is on record?
A: 115 µM (≈ 56.2 µg/mL)

Q: And the solubility at 72 h [2]?
A: > 400 µM

Q: With `NC(=O)c1ccc2[nH]c(-c3ccc(OCCC4CCN(Cc5ccc(Cl)cc5)CC4)cc3)nc2c1` as the compound, how does the solubility at 72 h [1] read?
A: 2 µM (≈ 0.978 µg/mL)

Q: What about the solubility at 72 h [2] of the same compound?
A: 179 µM (≈ 87.5 µg/mL)

Q: For `NC(=O)c1ccc2[nH]c(-c3ccc(OCC4CCNCC4)cc3)nc2c1`, which solubility at 72 h [1] is on record?
A: > 400 µM

Q: And the solubility at 72 h [2]?
A: > 400 µM

Q: What does the source list for `NC(=O)c1ccc2[nH]c(-c3ccc(OCCC4CCN(C(=O)c5ccccc5)CC4)cc3)nc2c1`?
A: solubility at 72 h [1]: 3 µM (≈ 1.41 µg/mL); solubility at 72 h [2]: 3 µM (≈ 1.41 µg/mL)

Q: Which solubility at 72 h [1] does the source give for `NC(=O)c1ccc2[nH]c(-c3ccc(OCCCO)cc3)nc2c1` here?
A: 7 µM (≈ 2.18 µg/mL)

Q: What about the solubility at 72 h [2] of the same compound?
A: 185 µM (≈ 57.6 µg/mL)

Q: Which results are given for `NC(=O)c1ccc2[nH]c(-c3ccc(OCCC4CCCCN4Cc4ccc(Cl)c(Cl)c4)cc3)nc2c1` (stereo not given)?
A: solubility at 72 h [1]: 229 µM (≈ 120 µg/mL); solubility at 72 h [2]: 39 µM (≈ 20.4 µg/mL)

Q: Which solubility at 72 h [1] does the source give for `COc1ccc(CN2CCCCC2CCOc2ccc(-c3nc4cc(C(N)=O)ccc4[nH]3)cc2)cc1` (stereo not given) here?
A: 84 µM (≈ 40.7 µg/mL)

Q: What about the solubility at 72 h [2] of the same compound?
A: > 400 µM

Q: What does the source list for `NC(=O)c1ccc2[nH]c(-c3ccc(OCCC4CCN(Cc5ccccc5)CC4)cc3)nc2c1`?
A: solubility at 72 h [1]: 5 µM (≈ 2.27 µg/mL); solubility at 72 h [2]: 110 µM (≈ 50 µg/mL)

Q: With `NC(=O)c1ccc2[nH]c(-c3ccc(OCCC4CCCCN4Cc4ccccc4)cc3)nc2c1` (stereo not given) as the compound, how does the solubility at 72 h [1] read?
A: 155 µM (≈ 70.5 µg/mL)

Q: And the solubility at 72 h [2]?
A: > 400 µM

Q: For `COc1ccc(CN2CCC(CCOc3ccc(-c4nc5cc(C(N)=O)ccc5[nH]4)cc3)CC2)cc1`, which solubility at 72 h [1] is on record?
A: < 1 µM

Q: What about the solubility at 72 h [2] of the same compound?
A: > 400 µM

Q: Which solubility at 72 h [1] does the source give for `NC(=O)c1ccc2[nH]c(-c3ccc(OC4CCCNC4)cc3)nc2c1` (stereo not given) here?
A: > 400 µM

Q: What about the solubility at 72 h [2] of the same compound?
A: > 400 µM

Q: For `CC(=O)N1CCC(CCOc2ccc(-c3nc4cc(C(N)=O)ccc4[nH]3)cc2)CC1`, which solubility at 72 h [1] is on record?
A: 2 µM (≈ 0.813 µg/mL)

Q: And the solubility at 72 h [2]?
A: 87 µM (≈ 35.4 µg/mL)

Q: Which solubility at 72 h [1] does the source give for `NC(=O)c1ccc2[nH]c(-c3ccc(OC4CCC(O)C4)cc3)nc2c1` (stereo not given) here?
A: 139 µM (≈ 46.9 µg/mL)

Q: And the solubility at 72 h [2]?
A: > 400 µM

Q: With `NC(=O)c1ccc2[nH]c(-c3ccc(OCCCN4CCCCC4)cc3)nc2c1` as the compound, how does the solubility at 72 h [1] read?
A: > 400 µM

Q: What about the solubility at 72 h [2] of the same compound?
A: > 400 µM
